Here are results for three compounds from patent US20100105689A1, “NOVEL 1,4- AND 1,5-DIARYLSUBSTITUTED 1,2,3-TRIAZOLES USEFUL AS POTASSIUM CHANNEL MODULATORS” (priority 2007, published 2010).

The structures appear in SMILES notation.

The target of series [1] is T1, BK channels heterologously expressed in Xenopus laevis oocytes (Homo sapiens, UniProt Q12791).
T1 construct: expressed in transfected cells; host or cells: Xenopus laevis oocytes
Put plainly: BK channel opening activity, two-electrode voltage clamp in oocytes. In kind it is cell-based. The following applies: Compound at 30 μM, step from −40 mV to +30 mV, added after a stable current level was reached, FIG. 1. As to the method:
In this example the BK channel opening activity of a 1,5-diarylsubstituted 1,2,3-triazole derivative for use according to the invention, i.e. CMPD-2 (herein designated Compound A), is determined using BK channels heterologously expressed in Xenopus laevis oocytes.
The electrical current through the BK channel is measured conventional two-electrode voltage clamp. BK current is activated by repeated step protocols. In brief, this protocol goes from a resting membrane potential of −40 mV lasting for 5 s to a depolarised step to +30 mV lasting for 1 s. The protocol was repeated continuously.
Having reached a stable current level, Compound A (30 μM), was added.

As usually defined, the melting point is the temperature, or range, at which the solid turns liquid.

T1 sequence (Q12791 whole entry): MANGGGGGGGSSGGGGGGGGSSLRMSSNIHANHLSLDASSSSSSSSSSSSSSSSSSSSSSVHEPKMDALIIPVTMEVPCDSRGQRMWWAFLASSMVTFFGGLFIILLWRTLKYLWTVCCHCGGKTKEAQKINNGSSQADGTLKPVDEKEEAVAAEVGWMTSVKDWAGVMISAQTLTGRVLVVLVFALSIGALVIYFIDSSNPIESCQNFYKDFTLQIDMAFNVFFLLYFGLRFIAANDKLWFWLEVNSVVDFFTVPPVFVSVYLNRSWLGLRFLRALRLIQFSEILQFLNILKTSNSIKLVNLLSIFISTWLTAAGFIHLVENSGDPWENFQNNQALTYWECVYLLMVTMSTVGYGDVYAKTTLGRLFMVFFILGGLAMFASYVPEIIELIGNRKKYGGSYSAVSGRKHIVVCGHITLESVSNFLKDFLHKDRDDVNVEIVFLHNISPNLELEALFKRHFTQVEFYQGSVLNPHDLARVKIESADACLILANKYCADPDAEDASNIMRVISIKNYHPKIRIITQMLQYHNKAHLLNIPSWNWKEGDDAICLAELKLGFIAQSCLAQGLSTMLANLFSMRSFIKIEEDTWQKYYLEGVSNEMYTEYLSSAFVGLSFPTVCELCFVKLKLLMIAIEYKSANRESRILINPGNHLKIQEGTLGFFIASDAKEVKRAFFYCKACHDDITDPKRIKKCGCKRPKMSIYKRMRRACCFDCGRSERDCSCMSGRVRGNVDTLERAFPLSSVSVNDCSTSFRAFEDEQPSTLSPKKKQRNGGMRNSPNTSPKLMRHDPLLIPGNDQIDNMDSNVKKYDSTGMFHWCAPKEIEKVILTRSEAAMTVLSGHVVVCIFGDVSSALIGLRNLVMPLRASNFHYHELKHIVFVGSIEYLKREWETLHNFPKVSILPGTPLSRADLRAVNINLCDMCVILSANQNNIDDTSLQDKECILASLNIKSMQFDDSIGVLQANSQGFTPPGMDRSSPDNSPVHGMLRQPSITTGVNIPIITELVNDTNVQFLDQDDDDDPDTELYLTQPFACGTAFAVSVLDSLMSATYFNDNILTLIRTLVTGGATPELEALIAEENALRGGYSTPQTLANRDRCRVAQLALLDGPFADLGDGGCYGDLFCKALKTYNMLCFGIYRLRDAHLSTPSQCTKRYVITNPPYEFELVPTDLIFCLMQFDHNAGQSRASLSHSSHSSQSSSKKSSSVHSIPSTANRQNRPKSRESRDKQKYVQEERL

In the case of `FC(F)(F)c1cccc(-c2cnnn2-c2cc(Cl)ccc2OCc2nnn[nH]2)c1` [CMPD-6, 5-{4-Chloro-2-[5-(3-trifluoromethyl-phenyl)-[1,2,3]triazol-1-yl]-phenoxymethyl}-1H-tetrazole], the melting point was 181.1 to 183.6 °C.

As to `FC(F)(F)c1cccc(-c2cnnn2-c2cc(Cl)ccc2-c2nnn[nH]2)c1` [CMPD-3, 5-{4-Chloro-2-[5-(3-trifluoromethyl-phenyl)-[1,2,3]triazol-1-yl]-phenyl}-1H-tetrazole], the melting point was in the range of 230.5 to 232.1 °C.

On to `FC(F)(F)c1ccc(-c2ccc(-n3nncc3-c3cc(C(F)(F)F)cc(C(F)(F)F)c3)c(-c3nnn[nH]3)c2)cc1` [Compound A, 5-{4-[5-(3,5-Bis-trifluoromethyl-phenyl)-[1,2,3]triazol-1-yl]-4′-trifluoromethyl-biphenyl-3-yl}-1H-tetrazole], for which, in series [1], the “BK current activated by depolarisation (BK channel opening activity)” value is given as “marked increase”.
